Measured values published in PubChem BioAssay AID248 (DTP/NCI, 2004).
“And” between values parts separate entries of the source, which are not always exact repeats. Identical values can stand only once. Inconclusive results and toxic doses are left out.

System: L1210 leukemia ip in BDF1 mice, survival T/C
Assay: NCI In Vivo Anticancer Drug Screen. Data for tumor model L1210 Leukemia (intraperitoneal) in B6D2F1 (BDF1) mice
Conditions: endpoint: mean survival time, higher = longer survival
How it was run: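 Tumor was transplanted into mice, which were then dosed with test compound or vehicle alone. Survival was recorded for each group, and the treated figure was expressed relative to the control figure.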

[1] = dose: 100.0 mg/kg/injection, schedule: Q01DX009 (ip), vehicle: saline with Tween-80
[2] = dose: 100.0 mg/kg/injection, schedule: Q04DX003 (ip), vehicle: Klucel (hydroxypropylcellulose) (HPC)
[3] = dose: 200.0 mg/kg/injection, schedule: Q01DX009 (ip), vehicle: saline with Tween-80
[4] = dose: 200.0 mg/kg/injection, schedule: Q04DX003 (ip), vehicle: Klucel (hydroxypropylcellulose) (HPC)
[5] = dose: 400.0 mg/kg/injection, schedule: Q01DX009 (ip), vehicle: saline with Tween-80
[6] = dose: 400.0 mg/kg/injection, schedule: Q04DX003 (ip), vehicle: Klucel (hydroxypropylcellulose) (HPC)
[7] = dose: 50.0 mg/kg/injection, schedule: Q01DX009 (ip), vehicle: Klucel (hydroxypropylcellulose) (HPC)
[8] = dose: 100.0 mg/kg/injection, schedule: Q01DX009 (ip), vehicle: Klucel (hydroxypropylcellulose) (HPC)
[9] = dose: 200.0 mg/kg/injection, schedule: Q01DX009 (ip), vehicle: Klucel (hydroxypropylcellulose) (HPC)
[10] = dose: 25.0 mg/kg/injection, schedule: Q01DX009 (ip), vehicle: Klucel (hydroxypropylcellulose) (HPC)
[11] = dose: 25.0 mg/kg/injection, schedule: Q04DX003 (ip), vehicle: Klucel (hydroxypropylcellulose) (HPC)
[12] = dose: 50.0 mg/kg/injection, schedule: Q04DX003 (ip), vehicle: Klucel (hydroxypropylcellulose) (HPC)
[13] = dose: 400.0 mg/kg/injection, schedule: Q01DX009 (ip), vehicle: Klucel (hydroxypropylcellulose) (HPC)
[14] = dose: 100.0 mg/kg/injection, schedule: Q04DX002 (ip), vehicle: saline with Tween-80
[15] = dose: 200.0 mg/kg/injection, schedule: Q04DX002 (ip), vehicle: saline with Tween-80
[16] = dose: 400.0 mg/kg/injection, schedule: Q04DX002 (ip), vehicle: saline with Tween-80
[17] = dose: 100.0 mg/kg/injection, schedule: Q04DX002 (ip), vehicle: Klucel (hydroxypropylcellulose) (HPC)
[18] = dose: 200.0 mg/kg/injection, schedule: Q04DX002 (ip), vehicle: Klucel (hydroxypropylcellulose) (HPC)
[19] = dose: 400.0 mg/kg/injection, schedule: Q04DX002 (ip), vehicle: Klucel (hydroxypropylcellulose) (HPC)
[20] = dose: 100.0 mg/kg/injection, schedule: Q01DX001 (ip), vehicle: Klucel (hydroxypropylcellulose) (HPC)
[21] = dose: 200.0 mg/kg/injection, schedule: Q01DX001 (ip), vehicle: Klucel (hydroxypropylcellulose) (HPC)
[22] = dose: 100.0 mg/kg/injection, schedule: Q04DX003 (ip), vehicle: saline with Tween-80

COc1c2c(c(OC)c3ccccc13)C(=O)C1=C(CC=CC1)C2=O
T/C (dose: 50.0 mg/kg/injection, schedule: Q01DX005 (ip), vehicle: water): 94 % of control | T/C (dose: 100.0 mg/kg/injection, schedule: Q01DX005 (ip), vehicle: water): 87 % of control | T/C (dose: 200.0 mg/kg/injection, schedule: Q01DX005 (ip), vehicle: water): 92 % of control

CCc1ccc(OS(=O)(=O)c2ccccc2[N+](=O)[O-])cc1
T/C [1]: 96 % of control | T/C [2]: 100 % of control | T/C [3]: 114 % of control | T/C [4]: 100 % of control | T/C [5]: 103 % of control | T/C [6]: 95 % of control

COc1ccc(/C=N/NC(=O)c2ccco2)cc1OC
T/C (dose: 100.0 mg/kg/injection, schedule: Q01DX001 (ip), vehicle: other): 93 % of control | T/C (dose: 400.0 mg/kg/injection, schedule: Q01DX001 (ip), vehicle: other): 96 % of control

O=C(O)CN1C(=O)CSC1=S
T/C [1]: 655 % of control | T/C [3]: 91 % of control | T/C [5]: 89 % of control

COC(=O)c1ccccc1NC(=O)Nc1cc([N+](=O)[O-])ccc1OC
T/C [7]: 90 % of control | T/C [8]: 97 % of control | T/C [9]: 108 % of control

O=c1cc(Nc2cccc(Cl)c2)[nH]c(=O)[nH]1
T/C (dose: 35.0 mg/kg/injection, schedule: Q01DX001 (ip), vehicle: Klucel (hydroxypropylcellulose) (HPC)): 92 % of control | T/C (dose: 70.0 mg/kg/injection, schedule: Q01DX001 (ip), vehicle: Klucel (hydroxypropylcellulose) (HPC)): 92 % of control | T/C (dose: 140.0 mg/kg/injection, schedule: Q01DX001 (ip), vehicle: Klucel (hydroxypropylcellulose) (HPC)): 98 % of control

C/C(=N\[N+](C)(C)C)c1ccc2ccccc2c1
T/C [10]: 101 % of control | T/C [11]: 101 % of control | T/C [7]: 100 % of control | T/C [12]: 105 % of control | T/C [8]: 90 % of control | T/C [2]: 95 % of control and 105 % of control

CCC[CH2][Sn]([Br])([c]1ccccc1)[c]1ccccc1
T/C (dose: 0.39 mg/kg/injection, schedule: Q01DX009 (ip), vehicle: saline with Tween-80): 92 % of control | T/C (dose: 0.78 mg/kg/injection, schedule: Q01DX009 (ip), vehicle: saline with Tween-80): 101 % of control | T/C (dose: 1.56 mg/kg/injection, schedule: Q01DX009 (ip), vehicle: saline with Tween-80): 89 % of control

Cc1cc(C)c(S(=O)(=O)Nc2cc([N+](=O)[O-])ccc2C)c(C)c1
T/C [8]: 97 % of control | T/C [9]: 92 % of control | T/C [13]: 92 % of control

Cc1cc2ccccc2[n+](C)c1-c1ccccc1Br
T/C (dose: 5.0 mg/kg/injection, schedule: Q01DX001 (ip), vehicle: saline): 108 % of control | T/C (dose: 10.0 mg/kg/injection, schedule: Q01DX001 (ip), vehicle: saline): 95 % of control

CCOCCOCCOC(C)Oc1ccc(Cl)cc1Cl (stereo not drawn)
T/C [14]: 97 % of control | T/C [15]: 94 % of control | T/C [16]: 100 % of control

FC1(F)SC2CCCCCCC2C1(F)F (stereo not drawn)
T/C (dose: 12.5 mg/kg/injection, schedule: Q01DX009 (ip), vehicle: Klucel (hydroxypropylcellulose) (HPC)): 98 % of control | T/C (dose: 12.5 mg/kg/injection, schedule: Q04DX003 (ip), vehicle: Klucel (hydroxypropylcellulose) (HPC)): 97 % of control | T/C [10]: 104 % of control | T/C [11]: 101 % of control | T/C [7]: 100 % of control | T/C [12]: 95 % of control

CCCCCCCCCCCCSC(=O)Nc1ccc(C(=O)OCC)cc1
T/C [17]: 95 % of control | T/C [18]: 116 % of control | T/C [19]: 92 % of control

Cc1cccc(C2=CCCCC2)c1
T/C (dose: 50.0 mg/kg/injection, schedule: Q01DX001 (ip), vehicle: carboxymethylcellulose (CMC)): 96 % of control | T/C (dose: 100.0 mg/kg/injection, schedule: Q01DX001 (ip), vehicle: carboxymethylcellulose (CMC)): 102 % of control | T/C (dose: 200.0 mg/kg/injection, schedule: Q01DX001 (ip), vehicle: carboxymethylcellulose (CMC)): 96 % of control

COc1ccccc1NC(=O)NCc1cc(C)ccc1C
T/C [8]: 93 % of control | T/C [9]: 88 % of control | T/C [13]: 93 % of control

O=[N+]([O-])c1cc([N+](=O)[O-])c2sc3ccccc3c2c1
T/C (dose: 50.0 mg/kg/injection, schedule: Q04DX002 (ip), vehicle: saline with Tween-80): 97 % of control | T/C [14]: 104 % of control and 90 % of control | T/C [15]: 87 % of control | T/C [16]: 108 % of control

c1ccc2cc(C3OCC4(CC4)CO3)ccc2c1
T/C (dose: 50.0 mg/kg/injection, schedule: Q01DX001 (ip), vehicle: Klucel (hydroxypropylcellulose) (HPC)): 109 % of control | T/C [20]: 102 % of control | T/C [21]: 100 % of control

O=NC1C(Cl)C2CC1C1COCC21 (stereo not drawn)
T/C [20]: 97 % of control | T/C [21]: 90 % of control | T/C (dose: 400.0 mg/kg/injection, schedule: Q01DX001 (ip), vehicle: Klucel (hydroxypropylcellulose) (HPC)): 89 % of control

COc1ccccc1C(CC(=O)c1ccccc1)Sc1ccccc1N (stereo not drawn)
T/C (dose: 100.0 mg/kg/injection, schedule: Q01DX005 (ip), vehicle: Klucel (hydroxypropylcellulose) (HPC)): 118 % of control and 89 % of control | T/C [8]: 93 % of control | T/C (dose: 130.0 mg/kg/injection, schedule: Q01DX005 (ip), vehicle: Klucel (hydroxypropylcellulose) (HPC)): 97 % of control | T/C (dose: 200.0 mg/kg/injection, schedule: Q01DX005 (ip), vehicle: Klucel (hydroxypropylcellulose) (HPC)): 115 % of control and 90 % of control | T/C [9]: 93 % of control | T/C (dose: 300.0 mg/kg/injection, schedule: Q01DX005 (ip), vehicle: Klucel (hydroxypropylcellulose) (HPC)): 103 % of control | T/C (dose: 400.0 mg/kg/injection, schedule: Q01DX005 (ip), vehicle: Klucel (hydroxypropylcellulose) (HPC)): 96 % of control and 87 % of control | T/C [13]: 86 % of control

Brc1ccc(N=Nc2ccccc2)cc1
T/C [2]: 103 % of control | T/C [4]: 97 % of control | T/C [6]: 103 % of control

CC(C)(C)CC(C)(C)CC(C)(C)NCCCN
T/C (dose: 12.5 mg/kg/injection, schedule: Q01DX009 (ip), vehicle: saline with Tween-80): 102 % of control | T/C (dose: 25.0 mg/kg/injection, schedule: Q01DX009 (ip), vehicle: saline with Tween-80): 93 % of control | T/C (dose: 25.0 mg/kg/injection, schedule: Q04DX003 (ip), vehicle: saline with Tween-80): 90 % of control | T/C (dose: 50.0 mg/kg/injection, schedule: Q04DX003 (ip), vehicle: saline with Tween-80): 97 % of control | T/C [22]: 96 % of control

COC(=O)C1Oc2ccc(Cl)cc2Cc2cc(Cl)ccc2O1
T/C [8]: 93 % of control | T/C [2]: 100 % of control | T/C [9]: 93 % of control | T/C [4]: 93 % of control | T/C [13]: 93 % of control | T/C [6]: 90 % of control

O=C1CNCSC1
T/C (dose: 100.0 mg/kg/injection, schedule: Q04DX002 (ip), vehicle: saline): 102 % of control | T/C (dose: 200.0 mg/kg/injection, schedule: Q04DX002 (ip), vehicle: saline): 115 % of control | T/C (dose: 400.0 mg/kg/injection, schedule: Q04DX002 (ip), vehicle: saline): 94 % of control

CCOC(=O)CCc1ccc(N=NN(C)C)cc1
T/C (dose: 125.0 mg/kg/injection, schedule: Q01DX009 (ip), vehicle: saline): 115 % of control

O=Cc1[nH]c(=O)[nH]c(=O)c1Cc1ccc(Cl)cc1
T/C [22]: 98 % of control | T/C (dose: 200.0 mg/kg/injection, schedule: Q04DX003 (ip), vehicle: saline with Tween-80): 102 % of control

Cc1ccc(N2CCN(CCCN3CCN(c4ccc(Cl)cc4)CC3)CC2)cc1
T/C (dose: 8.0 mg/kg/injection, schedule: Q01DX Z (ip), vehicle: carboxymethylcellulose (CMC)): 98 % of control | T/C (dose: 16.0 mg/kg/injection, schedule: Q01DX Z (ip), vehicle: carboxymethylcellulose (CMC)): 95 % of control | T/C [2]: 109 % of control

Cc1cc(C)c(NC(=O)Nc2cccc(F)c2)c(C)c1
T/C [8]: 96 % of control | T/C [17]: 98 % of control | T/C [9]: 105 % of control | T/C [18]: 102 % of control | T/C [19]: 102 % of control
